According to ChEMBL document CHEMBL5505972, “Design, synthesis and evaluation of C-5 substituted pyrrolopyridine derivatives as potent Janus Kinase 1 inhibitors with excellent selectivity” (Eur J Med Chem, 2024):
pIC50: −log10 of the molar value.

Target: Non-receptor tyrosine-protein kinase TYK2 (Homo sapiens, UniProt P29597)
Sequence (P29597 whole entry): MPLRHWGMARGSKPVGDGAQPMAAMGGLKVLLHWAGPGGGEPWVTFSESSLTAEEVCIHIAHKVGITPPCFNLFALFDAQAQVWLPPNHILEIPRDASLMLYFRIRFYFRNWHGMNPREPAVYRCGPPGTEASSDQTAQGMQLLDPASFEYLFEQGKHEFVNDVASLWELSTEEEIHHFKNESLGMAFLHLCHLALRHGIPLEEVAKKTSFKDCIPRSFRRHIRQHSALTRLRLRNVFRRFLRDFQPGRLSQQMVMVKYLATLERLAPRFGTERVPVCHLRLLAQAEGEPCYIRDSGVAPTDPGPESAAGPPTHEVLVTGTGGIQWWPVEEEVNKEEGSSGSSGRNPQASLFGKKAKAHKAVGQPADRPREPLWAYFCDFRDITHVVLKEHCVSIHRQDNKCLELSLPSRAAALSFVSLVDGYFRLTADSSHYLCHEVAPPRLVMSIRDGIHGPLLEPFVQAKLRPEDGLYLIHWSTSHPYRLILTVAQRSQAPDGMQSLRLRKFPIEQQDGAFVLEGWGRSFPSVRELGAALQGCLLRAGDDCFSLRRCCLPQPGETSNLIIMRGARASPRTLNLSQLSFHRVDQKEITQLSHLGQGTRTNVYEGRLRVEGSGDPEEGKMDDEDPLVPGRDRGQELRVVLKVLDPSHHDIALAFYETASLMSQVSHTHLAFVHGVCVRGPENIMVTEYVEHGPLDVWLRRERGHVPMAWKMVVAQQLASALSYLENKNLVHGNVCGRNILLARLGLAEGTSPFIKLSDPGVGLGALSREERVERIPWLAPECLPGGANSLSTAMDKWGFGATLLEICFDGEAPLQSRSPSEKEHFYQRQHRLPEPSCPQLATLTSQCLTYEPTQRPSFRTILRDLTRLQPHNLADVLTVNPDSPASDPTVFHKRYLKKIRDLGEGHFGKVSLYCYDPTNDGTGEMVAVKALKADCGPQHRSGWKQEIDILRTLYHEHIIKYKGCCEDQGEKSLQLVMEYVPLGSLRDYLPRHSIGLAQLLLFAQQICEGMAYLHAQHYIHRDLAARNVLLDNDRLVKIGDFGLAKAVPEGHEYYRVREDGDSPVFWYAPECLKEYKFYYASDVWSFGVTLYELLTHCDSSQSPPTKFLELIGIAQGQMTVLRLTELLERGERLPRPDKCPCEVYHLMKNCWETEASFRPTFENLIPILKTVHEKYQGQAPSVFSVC
Description: Inhibition of TYK2 (unknown origin) using GFP-STAT1 as substrate incubated for 1 hrs by TR-FRET assay

Compound | pIC50
COc1cccc(CN2CCC(Nc3c(-c4cc[nH]n4)cnc4[nH]ccc34)CC2)c1 | < 5.00
Clc1ccccc1CN1CCC(Nc2c(-c3cc[nH]c3)cnc3[nH]ccc23)CC1 | < 5.00
N#Cc1ccccc1CN1CCC(Nc2c(-c3cn[nH]c3)cnc3[nH]ccc23)CC1 | 8.39
Clc1ccc(CN2CCC(Nc3c(-c4cn[nH]c4)cnc4[nH]ccc34)CC2)cc1 | < 5.00
N#Cc1ccc(CN2CCC(Nc3c(-c4cn[nH]c4)cnc4[nH]ccc34)CC2)cc1 | < 5.00
N#Cc1cccc(CN2CCC(Nc3c(-c4cn[nH]c4)cnc4[nH]ccc34)CC2)c1 | < 5.00
N#Cc1ccccc1CN1CCC(Nc2c(-c3cc[nH]c3)cnc3[nH]ccc23)CC1 | 5.38
Clc1cccc(CN2CCC(Nc3c(-c4cc[nH]n4)cnc4[nH]ccc34)CC2)c1 | < 5.00
N#Cc1ccccc1CN1CCC(Nc2c(-c3cc[nH]n3)cnc3[nH]ccc23)CC1 | 8.89
Clc1ccc(CN2CCC(Nc3c(-c4cc[nH]n4)cnc4[nH]ccc34)CC2)cc1 | < 5.00
Clc1cccc(CN2CCC(Nc3c(-c4cc[nH]c4)cnc4[nH]ccc34)CC2)c1 | < 5.00
Clc1ccccc1CN1CCC(Nc2c(-c3cn[nH]c3)cnc3[nH]ccc23)CC1 | < 5.00
COc1cccc(CN2CCC(Nc3c(-c4cn[nH]c4)cnc4[nH]ccc34)CC2)c1 | < 5.00
N#Cc1cccc(CN2CCC(Nc3c(-c4cc[nH]n4)cnc4[nH]ccc34)CC2)c1 | < 5.00
Clc1cccc(CN2CCC(Nc3c(-c4cn[nH]c4)cnc4[nH]ccc34)CC2)c1 | < 5.00
Clc1ccccc1CN1CCC(Nc2c(-c3cc[nH]n3)cnc3[nH]ccc23)CC1 | < 5.00
N#Cc1cccc(CN2CCC(Nc3c(-c4cc[nH]c4)cnc4[nH]ccc34)CC2)c1 | < 5.00
COc1cccc(CN2CCC(Nc3c(-c4cc[nH]c4)cnc4[nH]ccc34)CC2)c1 | 6.30
N#Cc1ccc(CN2CCC(Nc3c(-c4cc[nH]n4)cnc4[nH]ccc34)CC2)cc1 | < 5.00
Clc1ccc(CN2CCC(Nc3c(-c4cc[nH]c4)cnc4[nH]ccc34)CC2)cc1 | < 5.00
N#Cc1ccc(CN2CCC(Nc3c(-c4cc[nH]c4)cnc4[nH]ccc34)CC2)cc1 | < 5.00
